In brackets after ≈: the same amount, converted by molar mass.
Tested on: Mycobacterium tuberculosis
Test: Antituberculosis activity against Mycobacterium tuberculosis H37Rv
Format: functional

SMILES	IC90 [µg/mL]	MIC [µg/mL]
O=S1(=O)C=C(Sc2nc3ccccc3s2)c2ccccc21	< 0.1	–
O=c1c2ccccc2nc(/C=C/c2ccc([N+](=O)[O-])o2)n1CCCO	< 0.1	–
Cc1cccc(Nc2nc(-c3ccccn3)cs2)n1	< 0.1	–
O=C(Nc1nc(-c2ccccc2)c(-c2ccccc2)o1)c1ccc(F)cc1	< 0.1	–
Cc1ccc2oc(-c3cc(NC(=O)Cc4ccccc4)ccc3Cl)nc2c1	< 0.1	–
C[C@@H]1COC2(CCN(c3nc(=O)c4cc(C(F)(F)F)cc([N+](=O)[O-])c4s3)CC2)O1	–	0.001 (≈ 0.00232 µM)
Cc1sc(N)nc1C(=O)O	–	0.06 (≈ 0.379 µM)
COC(=O)c1nc(N)sc1Cc1ccccc1	–	0.06 (≈ 0.242 µM)
FC(F)(F)c1ccccc1Nc1nc(-c2ccccn2)cs1	< 0.1	–
CC1(CNC(=O)Nc2ccc(C(F)(F)F)cc2)CC2CCC1C2 (stereo not given)	< 0.1	–
CC(C)(C)c1cc(Cl)c(O)c(NC(=S)NC(=O)c2ccc3ccccc3c2)c1	< 0.1	–
CSc1ncnc2c1ncn2CC(=O)Nc1ccc(C)c(C)c1	< 0.1	–
O=C(Nc1ccc(F)c(Cl)c1)c1ccc([N+](=O)[O-])o1	< 0.1	–
O=C(Nc1ccc(F)c(Cl)c1)C12CC3CC(CC(C3)C1)C2	< 0.1	–
O=C(CC12CC3CC(CC(C3)C1)C2)Nc1ccc2ccccc2c1	< 0.1	–
CC(C)(C)c1ccc(C(=O)Nc2nc3ccccc3[nH]2)cc1	< 0.1	–
Cc1ccc(C(=O)Nc2ccc([N+](=O)[O-])cc2C)cc1I	< 0.1	–
COC(=O)COc1ccc(NC(=O)COc2ccc(C)cc2C)cc1	< 0.1	–
Cc1cc([N+](=O)[O-])ccc1NC(=O)c1ccc(-c2ccccc2)cc1	< 0.1	–
COc1ccc(CCNC(=O)CCc2ncc(C(C)(C)C)s2)cc1	< 0.1	–
Cc1c(Cl)cccc1NC(=O)OC(C)(OC1CCCCC1)C(=O)O (stereo not given)	< 0.1	–
CSc1ncc(C(=O)Nc2cccc(C(F)(F)F)c2)cn1	< 0.1	–
Cc1cccnc1Nc1nc(-c2ccccn2)cs1	< 0.1	–
Clc1ccc(Nc2nc(-c3ccccn3)cs2)nc1	< 0.1	–
C[C@H]1COC2(CCN(c3nc(=O)c4cc(C(F)(F)F)cc([N+](=O)[O-])c4s3)CC2)O1 [BTZ-043]	–	0.001 (≈ 0.00232 µM)
